# Source: US12501899B2, “Mite infestation treatment” (priority 2019, dated 2025)
# Structures can show the parent of a compound that is named as a salt. Where two headings read alike, the source gives them in different places.
# Experiments:
# bees = assay: Mortality of adult bees in treated beehives (dead bee traps); format: in vivo; conditions: 55, 110, 220 mg/hive
# Method: 18 hives of bees were divided into 6 groups of 3 homogeneous hives as regards the strength of the colonies (number of bees) and the Varroa infestation.
# The tested compounds were applied in the form of a gel three weeks after the queen was caged. The activity of the compounds was studied for a period of 9 days.
# For this purpose, dead bee traps disposed in front of the hives were used.
# The following compounds were tested: • Dexmedetomidine at 55 mg/hive in hydrochloride form, • Dexmedetomidine at 110 mg/hive in hydrochloride form, • Dexmedetomidine at 220 mg/hive in hydrochloride form, • Detomidine at 38.4 mg/hive in hydrochloride form, • Detomidine at 110 mg/hive in hydrochloride form, • Detomidine at 220 mg/hive in hydrochloride form, Results
# Ixodes ricinus = assay: Oral acaricidal test on ticks in membrane feeding wells with treated blood; format: in vivo; conditions: for mortality at 1 ppm / mortality at 10 ppm / mortality at 100 ppm: Ixodes ricinus, po
# Method in brief: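 Ixodes ricinus nymphs and adults (batches of 12) fed through silicone membranes on ATP-enriched blood at 37 °C; after attachment (24 h), compounds at 1, 10, 100 ppm in 0.1% DMSO added for 24 h, blood changed at 12 h. Mortality, attachment and convulsions scored at 1–96 h.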
# bees (Apis mellifera) = system: bees (Apis mellifera)
# Method: The bees were then dispatched in the boxes (10 per box).
# The bees were then put to sleep for a few minutes using CO2 (flow of 3 liters for 20 seconds) in order to deposit 1 μL of compound to be tested on their thorax using a pipette. It should be noted that the bees which received romifidine hydrochloride at a concentration of 10 μg/μL received 2 μL of product. The bees were unconscious for the time the compound to be tested was deposited, that is to say around three minutes, then they woke up.
# After thoracic deposition of the compound to be tested, the 10 bees from the same box were transferred to a box containing the 10 Varroa mites (cf. “Preparation of Varroa mites” above). Liquid sugar was left in each of the boxes to feed the bees during the observations. The series of boxes was then placed in an oven at […] with a humidity of 50% in order to approximate hive conditions as closely as possible.
# The mortality of Varroa mites and bees was then monitored 5 minutes, 2 hours, 4 hours and 24 hours after application of the compound to be tested to the bees. Dead Varroa mites correspond to Varroa mites detached from the bees. Dead bees correspond to bees which no longer move and which are often placed on their thorax.
# The following compositions were applied to the thorax of the bees: • Solvent, • Amitraz at 1 μg/μL in acetone, • Clonidine hydrochloride at 100 μg/μL, 10 μg/μL, 1 μg/μL and 0.1 μg/μL in methanol, • Detomidine hydrochloride monohydrate at 1 μg/μL in methanol, • Dexmedetomidine hydrochloride at 100 μg/μL, 10 μg/μL, 1 μg/μL and 0.1 μg/μL in methanol, • Romifidine hydrochloride at 10 μg/μL and at 5 μg/μL in methanol, • Tizanidine hydrochloride at 1 μg/μL in methanol, • Medetomidine hydrochloride at 0.1 μg/μL in ethanol, • Levomedetomidine hydrochloride at 100 μg/μL, 10 μg/μL, 1 μg/μL and 0.1 μg/μL in methanol, • Octopamine at 1 μg/μL in ethanol. Results
compound,measurement,setting,value
"Cc1cccc([C@H](C)c2c[nH]cn2)c1C [Dexmedetomidine hydrochloride, (S)-4-[1-(2,3-dimethylphenyl)-ethyl]-1H-imidazole]",bee mortality in the hive (in words),bees,no increase in bee mortality
same,effect in terms of tick detachment (in words),"Ixodes ricinus; 1, 10, 100 ppm, nymphs and adults",very limited effect
same,detached nymphs in a replica,"Ixodes ricinus; 1 ppm, nymphs",1
same,detached adult ticks in a replica,"Ixodes ricinus; 100 ppm, adult ticks",1
same,mortality at 1 ppm,"Ixodes ricinus; adult ticks, 1 ppm, 1 h, read-out: average percentage of adult tick mortality (moribund or dead adult ticks)",0%
same,mortality at 1 ppm,"Ixodes ricinus; adult ticks, 1 ppm, 3 h, read-out: average percentage of adult tick mortality (moribund or dead adult ticks)",0%
same,mortality at 1 ppm,"Ixodes ricinus; adult ticks, 1 ppm, 6 h, read-out: average percentage of adult tick mortality (moribund or dead adult ticks)",3.1%
same,mortality at 1 ppm,"Ixodes ricinus; adult ticks, 1 ppm, 12 h, read-out: average percentage of adult tick mortality (moribund or dead adult ticks)",3.1%
same,mortality at 1 ppm,"Ixodes ricinus; adult ticks, 1 ppm, 24 h, read-out: average percentage of adult tick mortality (moribund or dead adult ticks)",64.2%
same,mortality at 1 ppm,"Ixodes ricinus; adult ticks, 1 ppm, 48 h, read-out: average percentage of adult tick mortality (moribund or dead adult ticks)",88.2%
same,mortality at 1 ppm,"Ixodes ricinus; adult ticks, 1 ppm, 72 h, read-out: average percentage of adult tick mortality (moribund or dead adult ticks)",100%
same,mortality at 1 ppm,"Ixodes ricinus; adult ticks, 1 ppm, 96 h, read-out: average percentage of adult tick mortality (moribund or dead adult ticks)",100%
same,mortality at 10 ppm,"Ixodes ricinus; adult ticks, 1 h, read-out: average percentage of adult tick mortality (moribund or dead adult ticks)",0%
same,mortality at 10 ppm,"Ixodes ricinus; adult ticks, 3 h, read-out: average percentage of adult tick mortality (moribund or dead adult ticks)",0%
same,mortality at 10 ppm,"Ixodes ricinus; adult ticks, 6 h, read-out: average percentage of adult tick mortality (moribund or dead adult ticks)",5.6%
same,mortality at 10 ppm,"Ixodes ricinus; adult ticks, 12 h, read-out: average percentage of adult tick mortality (moribund or dead adult ticks)",11.1%
same,mortality at 10 ppm,"Ixodes ricinus; adult ticks, 24 h, read-out: average percentage of adult tick mortality (moribund or dead adult ticks)",57.3%
same,mortality at 10 ppm,"Ixodes ricinus; adult ticks, 48 h, read-out: average percentage of adult tick mortality (moribund or dead adult ticks)",79.5%
same,mortality at 10 ppm,"Ixodes ricinus; adult ticks, 72 h, read-out: average percentage of adult tick mortality (moribund or dead adult ticks)",96.9%
same,mortality at 10 ppm,"Ixodes ricinus; adult ticks, 96 h, read-out: average percentage of adult tick mortality (moribund or dead adult ticks)",100%
same,mortality at 100 ppm,"Ixodes ricinus; adult ticks, 100 ppm, 1 h, read-out: average percentage of adult tick mortality (moribund or dead adult ticks)",0%
same,mortality at 100 ppm,"Ixodes ricinus; adult ticks, 100 ppm, 3 h, read-out: average percentage of adult tick mortality (moribund or dead adult ticks)",0%
same,mortality at 100 ppm,"Ixodes ricinus; adult ticks, 100 ppm, 6 h, read-out: average percentage of adult tick mortality (moribund or dead adult ticks)",5.9%
same,mortality at 100 ppm,"Ixodes ricinus; adult ticks, 100 ppm, 12 h, read-out: average percentage of adult tick mortality (moribund or dead adult ticks)",11.8%
same,mortality at 100 ppm,"Ixodes ricinus; adult ticks, 100 ppm, 24 h, read-out: average percentage of adult tick mortality (moribund or dead adult ticks)",63.9%
same,mortality at 100 ppm,"Ixodes ricinus; adult ticks, 100 ppm, 48 h, read-out: average percentage of adult tick mortality (moribund or dead adult ticks)",76.4%
same,mortality at 100 ppm,"Ixodes ricinus; adult ticks, 100 ppm, 72 h, read-out: average percentage of adult tick mortality (moribund or dead adult ticks)",91.3%
same,mortality at 100 ppm,"Ixodes ricinus; adult ticks, 100 ppm, 96 h, read-out: average percentage of adult tick mortality (moribund or dead adult ticks)",100%
same,mortality at 1 ppm,"Ixodes ricinus; nymphs, 1 ppm, 1 h, read-out: average percentage of mortality of tick nymphs (moribund or dead nymphs)",0%
same,mortality at 1 ppm,"Ixodes ricinus; nymphs, 1 ppm, 3 h, read-out: average percentage of mortality of tick nymphs (moribund or dead nymphs)",0%
same,mortality at 1 ppm,"Ixodes ricinus; nymphs, 1 ppm, 6 h, read-out: average percentage of mortality of tick nymphs (moribund or dead nymphs)",13.8%
same,mortality at 1 ppm,"Ixodes ricinus; nymphs, 1 ppm, 12 h, read-out: average percentage of mortality of tick nymphs (moribund or dead nymphs)",31.3%
same,mortality at 1 ppm,"Ixodes ricinus; nymphs, 1 ppm, 24 h, read-out: average percentage of mortality of tick nymphs (moribund or dead nymphs)",58.9%
same,mortality at 1 ppm,"Ixodes ricinus; nymphs, 1 ppm, 48 h, read-out: average percentage of mortality of tick nymphs (moribund or dead nymphs)",85.7%
same,mortality at 1 ppm,"Ixodes ricinus; nymphs, 1 ppm, 72 h, read-out: average percentage of mortality of tick nymphs (moribund or dead nymphs)",100%
same,mortality at 1 ppm,"Ixodes ricinus; nymphs, 1 ppm, 96 h, read-out: average percentage of mortality of tick nymphs (moribund or dead nymphs)",100%
same,mortality at 10 ppm,"Ixodes ricinus; nymphs, 1 h, read-out: average percentage of mortality of tick nymphs (moribund or dead nymphs)",0%
same,mortality at 10 ppm,"Ixodes ricinus; nymphs, 3 h, read-out: average percentage of mortality of tick nymphs (moribund or dead nymphs)",9.2%
same,mortality at 10 ppm,"Ixodes ricinus; nymphs, 6 h, read-out: average percentage of mortality of tick nymphs (moribund or dead nymphs)",24.9%
same,mortality at 10 ppm,"Ixodes ricinus; nymphs, 12 h, read-out: average percentage of mortality of tick nymphs (moribund or dead nymphs)",48.3%
same,mortality at 10 ppm,"Ixodes ricinus; nymphs, 24 h, read-out: average percentage of mortality of tick nymphs (moribund or dead nymphs)",83%
same,mortality at 10 ppm,"Ixodes ricinus; nymphs, 48 h, read-out: average percentage of mortality of tick nymphs (moribund or dead nymphs)",96.9%
same,mortality at 10 ppm,"Ixodes ricinus; nymphs, 72 h, read-out: average percentage of mortality of tick nymphs (moribund or dead nymphs)",100%
same,mortality at 10 ppm,"Ixodes ricinus; nymphs, 96 h, read-out: average percentage of mortality of tick nymphs (moribund or dead nymphs)",100%
same,mortality at 100 ppm,"Ixodes ricinus; nymphs, 100 ppm, 1 h, read-out: average percentage of mortality of tick nymphs (moribund or dead nymphs)",0%
same,mortality at 100 ppm,"Ixodes ricinus; nymphs, 100 ppm, 3 h, read-out: average percentage of mortality of tick nymphs (moribund or dead nymphs)",13.3%
same,mortality at 100 ppm,"Ixodes ricinus; nymphs, 100 ppm, 6 h, read-out: average percentage of mortality of tick nymphs (moribund or dead nymphs)",33%
same,mortality at 100 ppm,"Ixodes ricinus; nymphs, 100 ppm, 12 h, read-out: average percentage of mortality of tick nymphs (moribund or dead nymphs)",59%
same,mortality at 100 ppm,"Ixodes ricinus; nymphs, 100 ppm, 24 h, read-out: average percentage of mortality of tick nymphs (moribund or dead nymphs)",92.9%
same,mortality at 100 ppm,"Ixodes ricinus; nymphs, 100 ppm, 48 h, read-out: average percentage of mortality of tick nymphs (moribund or dead nymphs)",100%
same,mortality at 100 ppm,"Ixodes ricinus; nymphs, 100 ppm, 72 h, read-out: average percentage of mortality of tick nymphs (moribund or dead nymphs)",100%
same,mortality at 100 ppm,"Ixodes ricinus; nymphs, 100 ppm, 96 h, read-out: average percentage of mortality of tick nymphs (moribund or dead nymphs)",100%
same,"ticks affected (convulsion, morbidity or death of ticks)","Ixodes ricinus; from 1 hour of exposure, regardless of the concentration tested (1, 10, 100 ppm)",100%
same,mortality for bees,"bees (Apis mellifera); 0.1 μg/μL, after 24 hours",less than 5%
same,mortality / toxicity for the bees,"bees (Apis mellifera); 1 μg/μL, after 24 hours",less than 5%
same,mortality for bees,"bees (Apis mellifera); 10 μg/μL, after 24 hours",less than 5%
same,toxicity for bees,bees (Apis mellifera); 100 μg/μL,toxic for bees
